# From patent US9427415B2, “Methods and compositions for modifying sensorial perception” (The Procter & Gamble Company, priority 2014, dated 2016)
# Where two headings read alike, the source gives them in different places.
# Assays:
# [1] = tested on: TRPA1V1; test: Intracellular calcium (Fluo-4, FLIPR) activation of TRPA1V1 cells (co-expressing TRPA1 and TRPV1) by GRAS compounds; format: cell-based, human;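 also: HEK293 cells co-expressing TRPA1 and TRPV1, fluorescence read at 488/514 nm after baseline subtraction, recorded every 2 s over 10 min, ionomycin 10 µM and buffer as controls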
# Description: TRPV1, TRPA1, TRPA1V1 and pcDNA3 cells were grown in 15 mL growth medium [high glucose DMEM (Dulbecco's modification of Eagle's medium) supplemented with 10% FBS (fetal bovine serum), 100 μg/mL penicillin/streptomycin, 100 μg/mL G418] in a 75 cm^2 flask for 3 days in a mammalian cell culture incubator at 33° C. and 5% CO2. TRP Cells were detached with 8 mL of PBS (without calcium or magnesium); for pcDNA3 cells, trypsin was used for releasing the cells. The detached cells were spun at low speed (800-900 rpm for 3 min) to pellet the cells. […] The cells were washed once with 45 mL assay buffer (1×HBSS, 20 mM HEPES) by low speed centrifugation (800-900 rpm for 3 min) and resuspended in 11 mL of the assay buffer in a reagent reservoir. […] The plates were set at room temperature for 30 min. The plates were read in a FLIPR^TETRA instrument (Molecular Devices, Sunnyvale, Calif.) at λex 488 nm and λem 514 nm to record baseline fluorescence following which 20 μL of test material at 1 mM or 100 μM final concentration for pure compounds in a GRAS library or 0.004% for extracts. For agonists, capsaicin 350 nM and AITC at 30 μM; and for controls, ionomycin 10 μM and buffer alone) was added to each well using the dispenser provided in the FLIPR. The data point was recorded every 2 seconds for a total of 10 min.
# Average value for activation from three independent assay plates are presented as % of agonist value (AITC, 30 μM for TRPA1 and capsaicin, 350 nM for TRPV1. For TRPA1V1, we used AITC, 30 μM or capsaicin, 350 nM depending on if the compound is an A1 agonist or a V1 agonist. For compounds that activated both A1 and V1, we used AITC for normalization). Variation among triplicates was within 10% of each other. Assayed at 1 mM for pure compounds and 0.004% for extracts.
# [2] = biological target: T1, human TRPV1 (Homo sapiens, UniProt Q8NER1, M315I/T336M); test: Intracellular calcium (Fluo-4, FLIPR) activation of TRPV1 cells by GRAS compounds; format: cell-based; conditions: relative to capsaicin 350 nM; for activation at 1000 µM / V1 activation, % of agonist value: 1 mM;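 as to all read-outs here: TRPV1-expressing cells, FLIPR fluorescence at 488/514 nm with baseline subtracted, sampled every 2 s for 10 min after adding compound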
# T1 construct: expressed in transfected cells; pcDNA3 control cells
# [3] = biological target: T2, human TRPA1 (Homo sapiens, UniProt O75762, K186N/R3C/R58T); test: Intracellular calcium (Fluo-4, FLIPR) activation of TRPA1 cells by GRAS compounds; format: cell-based; conditions: 1 mM, relative to AITC 30 μM; for activation at 1000 µM: read-out: A1 activation, % of agonist value;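 as to all read-outs here: TRPA1-expressing cells, fluorescence read on a FLIPR Tetra (ex 488 nm, em 514 nm) every 2 s for 10 min after compound addition, baseline subtracted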
# T2 construct: expressed in transfected cells; pcDNA3 control cells
# [4] = Table 1(g), 1 mM, relative to capsaicin 350 nM
# [5] = Table 1(g), read-out: V1 activation, % of agonist value
# [6] = Table 1(h), 1 mM, relative to capsaicin 350 nM
# [7] = Table 1(h), read-out: V1 activation, % of agonist value
# [8] = Table 1(f), 1 mM, relative to capsaicin 350 nM
# [9] = Table 1(f), read-out: V1 activation, % of agonist value
# [10] = Table 1(c), 1 mM, relative to AITC 30 μM
# [11] = Table 1(d), 1 mM, relative to AITC 30 μM
# T2 sequence (O75762 whole entry R3C/R58T/K186N): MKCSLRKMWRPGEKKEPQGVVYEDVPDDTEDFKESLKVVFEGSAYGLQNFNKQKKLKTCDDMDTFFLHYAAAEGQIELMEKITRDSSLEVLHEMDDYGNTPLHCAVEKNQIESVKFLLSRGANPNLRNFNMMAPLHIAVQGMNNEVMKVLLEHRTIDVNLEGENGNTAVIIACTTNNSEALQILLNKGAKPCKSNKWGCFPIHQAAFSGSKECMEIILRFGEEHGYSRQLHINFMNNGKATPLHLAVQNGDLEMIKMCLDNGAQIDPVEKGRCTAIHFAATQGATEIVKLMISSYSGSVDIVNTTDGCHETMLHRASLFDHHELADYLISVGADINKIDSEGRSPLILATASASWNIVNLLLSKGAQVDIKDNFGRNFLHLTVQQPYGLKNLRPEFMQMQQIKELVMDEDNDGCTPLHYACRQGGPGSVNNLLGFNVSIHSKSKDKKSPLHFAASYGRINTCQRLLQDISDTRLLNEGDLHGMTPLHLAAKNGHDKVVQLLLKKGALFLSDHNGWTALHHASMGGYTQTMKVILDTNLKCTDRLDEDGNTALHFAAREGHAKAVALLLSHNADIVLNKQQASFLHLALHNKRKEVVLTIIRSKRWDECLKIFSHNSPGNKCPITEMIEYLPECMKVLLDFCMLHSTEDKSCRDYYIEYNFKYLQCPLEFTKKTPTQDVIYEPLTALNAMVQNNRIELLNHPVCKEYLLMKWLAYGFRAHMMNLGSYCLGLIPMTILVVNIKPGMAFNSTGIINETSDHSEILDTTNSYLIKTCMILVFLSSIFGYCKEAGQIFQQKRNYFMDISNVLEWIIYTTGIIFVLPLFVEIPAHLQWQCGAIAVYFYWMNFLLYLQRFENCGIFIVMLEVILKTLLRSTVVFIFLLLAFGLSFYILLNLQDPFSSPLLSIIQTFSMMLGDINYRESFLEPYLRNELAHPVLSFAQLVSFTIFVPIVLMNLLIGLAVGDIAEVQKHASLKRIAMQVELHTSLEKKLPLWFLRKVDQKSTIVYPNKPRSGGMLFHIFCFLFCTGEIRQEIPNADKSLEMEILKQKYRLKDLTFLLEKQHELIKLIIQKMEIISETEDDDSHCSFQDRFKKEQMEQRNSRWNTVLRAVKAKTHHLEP
# T1 sequence (Q8NER1 whole entry M315I/T336M): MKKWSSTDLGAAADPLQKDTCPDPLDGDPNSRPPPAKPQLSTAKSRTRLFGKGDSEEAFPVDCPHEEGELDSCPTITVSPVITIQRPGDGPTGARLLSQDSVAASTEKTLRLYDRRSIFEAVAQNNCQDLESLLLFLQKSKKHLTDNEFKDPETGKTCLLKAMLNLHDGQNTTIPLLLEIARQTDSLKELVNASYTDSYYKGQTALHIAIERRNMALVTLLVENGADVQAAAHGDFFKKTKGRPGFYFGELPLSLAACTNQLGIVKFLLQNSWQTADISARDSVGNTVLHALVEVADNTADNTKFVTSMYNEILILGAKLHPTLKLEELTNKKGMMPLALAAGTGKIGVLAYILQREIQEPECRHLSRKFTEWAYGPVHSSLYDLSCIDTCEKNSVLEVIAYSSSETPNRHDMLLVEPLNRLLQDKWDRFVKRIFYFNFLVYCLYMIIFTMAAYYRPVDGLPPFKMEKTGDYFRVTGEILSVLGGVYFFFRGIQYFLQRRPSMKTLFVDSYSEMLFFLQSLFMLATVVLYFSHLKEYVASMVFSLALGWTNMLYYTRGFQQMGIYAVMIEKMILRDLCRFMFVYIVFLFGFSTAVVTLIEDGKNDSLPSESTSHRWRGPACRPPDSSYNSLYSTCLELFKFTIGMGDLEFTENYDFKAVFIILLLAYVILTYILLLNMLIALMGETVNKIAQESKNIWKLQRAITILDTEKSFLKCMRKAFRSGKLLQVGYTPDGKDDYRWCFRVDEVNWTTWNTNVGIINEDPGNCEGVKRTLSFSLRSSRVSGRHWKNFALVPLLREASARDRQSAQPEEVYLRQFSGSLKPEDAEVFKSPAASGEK
smiles,measurement,setting,value
"CC1SCCS1 [1,3-Dithiolane, 2-methyl-]","A1V1 activation, % of agonist value",[1]; [4],119.9%
same,activation at 1000 µM,[2]; [5],66.2%
"C=CCSCC=C [1-Propene, 3,3′-thiobis-]","A1V1 activation, % of agonist value",[1]; [4],108.4%
same,activation at 1000 µM,[2]; [5],47.3%
"CCCCCCCC=CC=CC=O [2,4-Dodecadienal]","A1V1 activation, % of agonist value","[1]; Table 1(h), 100 μM (marked *), relative to capsaicin 350 nM",53.5%
same,activation at 100 µM,"[2]; Table 1(h), 100 μM (marked *), read-out: V1 activation, % of agonist value",199%
"Cc1ccc(C)c(O)c1 [2,5-Dimethylphenol]","A1V1 activation, % of agonist value",[1]; [6],34.2%
same,activation at 1000 µM,[2]; [7],81.2%
"Cc1cccc(C)c1O [2,6-Dimethylphenol]","A1V1 activation, % of agonist value",[1]; [6],45.8%
same,activation at 1000 µM,[2]; [7],72.1%
"O=CC(=Cc1ccco1)c1ccccc1 [2-Furanacrolein, alpha-phenyl-]","A1V1 activation, % of agonist value",[1]; [8],66.2%
same,"V1 activation, % of agonist value",[2]; Table 1(f),55.7%
CC(C)c1ccccc1O [2-Isopropylphenol],"A1V1 activation, % of agonist value",[1]; [6],83.5%
same,activation at 1000 µM,[2]; [7],108%
Cc1ccc(C(C)CC=O)o1 (centres unmarked) [3-(5-Methyl-2-furyl)butanal],"A1V1 activation, % of agonist value",[1]; [8],91.6%
same,activation at 1000 µM,[2]; [9],103%
"CC(=O)c1cc(C)sc1C [3-Acetyl-2,5-dimethylthiophene]","A1V1 activation, % of agonist value",[1]; [8],84.9%
same,activation at 1000 µM,[2]; [9],95.1%
CCCCCCCC1CC(C)OC1=O (centres unmarked) [3-Heptyldihydro-5-methylfuran-2(3H)-one],"A1V1 activation, % of agonist value",[1]; [8],40.5%
same,activation at 1000 µM,[2]; [9],45.5%
CCC(C)(O)CCc1ccccc1 (centres unmarked) [3-Methyl-1-phenyl-3-pentanol],"A1V1 activation, % of agonist value",[1]; [6],70.5%
same,activation at 1000 µM,[2]; [7],100%
CC(=O)CCc1ccc(OC(C)=O)cc1 [4-(p-Acetoxyphenyl)-2-butanone],"A1V1 activation, % of agonist value",[1]; [4],91.8%
same,activation at 1000 µM,[2]; [5],58.9%
CCCCCCC1CCC(=O)O1 (centres unmarked) [4-Decanolide],"A1V1 activation, % of agonist value",[1]; [8],35.8%
same,activation at 1000 µM,[2]; [9],40.9%
CCc1ccc(C=O)cc1 [4-Ethylbenzaldehyde],"A1V1 activation, % of agonist value",[1]; [4],120.3%
same,activation at 1000 µM,[2]; [5],56.3%
CC(=O)c1ccc(C)cc1 [4′-Methylacetophenone],"A1V1 activation, % of agonist value",[1]; [4],136.6%
same,activation at 1000 µM,[2]; [5],55%
Cc1ccc(C=O)s1 [5-Methyl-2-thiophenecarboxaldehyde],"A1V1 activation, % of agonist value",[1]; [4],111.4%
same,activation at 1000 µM,[2]; [5],58.9%
CCCCCc1cccc(=O)o1 [6-Pentyl-alpha-pyrone],"A1V1 activation, % of agonist value",[1]; [4],95.2%
same,"V1 activation, % of agonist value",[2]; Table 1(g),66.1%
CC1(C)[C@@H](O[C@H]2O[C@H](C(=O)O)[C@@H](O)[C@H](O)[C@H]2O[C@@H]2O[C@H](C(=O)O)[C@@H](O)[C@H](O)[C@H]2O)CC[C@]2(C)[C@H]3C(=O)C=C4[C@@H]5C[C@@](C)(C(=O)O)CC[C@]5(C)CC[C@@]4(C)[C@]3(C)CC[C@@H]12 [18beta-Glycyrrhizinic acid],"A1V1 activation, % of agonist value",[1]; [4],162.7%
same,"V1 activation, % of agonist value",[2]; Table 1(g),100.9%
COC(=O)c1ccc(O)cc1 [Methylparaben],"A1V1 activation, % of agonist value",[1]; [10],66.33%
same,activation at 1000 µM,[3]; Table 1(c),62%
"COC(=O)c1ccccc1N(C)C [N,N-Dimethylanthranilic acid methyl ester]","A1V1 activation, % of agonist value",[1]; [10],77.15%
same,activation at 1000 µM,[3]; Table 1(c),74.2%
CCCCCCCCCO [Nonyl alcohol],"A1V1 activation, % of agonist value",[1]; [10],69.4%
same,activation at 1000 µM,[3]; Table 1(c),71.1%
COc1ccccc1C=CC=O [O-Methoxycinnamaldehyde],"A1V1 activation, % of agonist value",[1]; [10],55.99%
same,"A1 activation, % of agonist value",[3]; Table 1(c),65.3%
CC(=O)OCc1ccccc1C [O-Methylbenzyl acetate],"A1V1 activation, % of agonist value",[1]; [10],77.24%
same,"A1 activation, % of agonist value",[3]; Table 1(c),87.22%
Cc1ccccc1OC(=O)C(C)C [O-Tolyl isobutyrate],"A1V1 activation, % of agonist value",[1]; [10],57.76%
same,"A1 activation, % of agonist value",[3]; Table 1(c),49.37%
CCCCCCCCOC(=O)c1ccco1 [Octyl 2-furoate],"A1V1 activation, % of agonist value",[1]; [11],40.60%
same,activation at 1000 µM,[3]; Table 1(d),54.3%
S=C=NCCc1ccccc1 [Phenethyl isothiocyanate],"A1V1 activation, % of agonist value",[1]; [10],81.46%
same,activation at 1000 µM,[3]; Table 1(c),92%
CC(C)C(=O)OCCOc1ccccc1 [Phenoxyethyl isobutyrate],"A1V1 activation, % of agonist value",[1]; [11],53.9%
same,activation at 1000 µM,[3]; Table 1(d),81%
CCC(=O)OCCOc1ccccc1 [Phenoxyethyl propionate],"A1V1 activation, % of agonist value",[1]; [10],79.34%
same,activation at 1000 µM,[3]; Table 1(c),65.5%
"CSCCCN=C=S [Propane, 1-isothiocyanato-3-(methylthio)-]","A1V1 activation, % of agonist value","[1]; Table 1(e), 1 mM, relative to AITC 30 μM",114.6%
same,activation at 1000 µM,[3]; Table 1(e),81.6%
CCCOC(=O)c1ccccc1 [Propyl benzoate],"A1V1 activation, % of agonist value",[1]; [11],25.7%
same,activation at 1000 µM,[3]; Table 1(d),40.7%
CC1=C(/C=C/C(C)=C/C=C/C(C)=C/CO)C(C)(C)CCC1 [Retinol],"A1V1 activation, % of agonist value",[1]; [10],67.79%
same,activation at 1000 µM,[3]; Table 1(c),80%
